Experiments:
[1] = test system: endogenous testosterone, LH, and FSH production; assay: Example 3: hormone levels after administration of enclomiphene (pre-TRT); assay type: in vivo, human; details: after 6.25 mg of enclomiphene; n=1
Procedure: This example investigated the effects of administering a SERM (enclomiphene) on endogenous testosterone, LH, and FSH production.
Hormone levels were measured after administration of 6.25 mg of enclomiphene (see Table 3, n=1).

[2] = FIG. 1: testosterone concentration in a patient at various time points after 200 mg of testosterone; details: after administration; FIG. 1, 200 mg of testosterone
Procedure: FIG. 1 is a phase diagram of the testosterone concentration in a patient at various time points after being administered 200 mg of testosterone.
Hormone levels were measured after co-administration of 200 mg of testosterone and 6.25 mg of enclomiphene for 30 days. Testosterone concentration was measured at +4 hours and +12 hours after administration. […] Testosterone concentration was measured at +4 hours after administration to capture the peak testosterone concentration (cMax) and +12 hours after administration to capture the trough testosterone concentration (cMin) to determine if endogenous testosterone suppression is prevented with the enclomiphene.

SMILES	Calculated free testosterone levels [1] [pg/mL]	Sex Hormone Binding Globulin [1] [nmol/L]	Testosterone, Bioavailable [1] [ng/dL]	Testosterone, Free [1] [pg/mL]	Testosterone, Total, MS [1] [ng/dL]	increase of calculated free testosterone from baseline (114 pg/mL) [1] [%]	time of testosterone peak [2] [h]	time until testosterone is out of the system [2] [h]
CCN(CC)CCOc1ccc(/C(=C(/Cl)c2ccccc2)c2ccccc2)cc1 [enclomiphene]	197	20	322.9	153.7	724	73	–	–
C[C@]12CC[C@H]3[C@@H](CCC4=CC(=O)CC[C@@]43C)[C@@H]1CC[C@@H]2O [Testosterone, testosterone]	–	–	–	–	–	–	3 to 5	≤ 12

Source: US20250213589A1, “METHODS AND COMPOSITIONS FOR TE[…]” (priority 2023, published 2025)
